From US8580773B2, “Small-molecule inhibitors of the androgen receptor” (The Regents of the University of California, priority 2008, dated 2013)
Where a name gives a salt, the structure may show the parent alone.

Columns and labels:
[1] = system: LAPC4 cells; experiment: Cell proliferation (DNA content, DAPI) in LAPC4 cells; type: cell-based, human; settings: 3 nM DHT, PP 100 nM, HH 100 nM, BiC 1 μM, seven days
From the text: LN-AR cells were created by retroviral infection of a high-expressing AR vector into LNCaP cells, and proliferate independent of androgen in cell culture, unlike their parental line (Chen, C. D., et al., Molecular determinants of resistance to antiandrogen therapy. Nat Med, 2004. 10(1): p. 33-9). HEK293 cells were used as a control. Cells were transferred to charcoal-stripped media two days before they were split and plated in quadruplicate at a density of approximately 20,000 cells/well in 48-well plates. […] Media were changed every day, using a single preparation to ensure consistent compound concentrations. Proliferation was determined by measuring the DNA content of the cells in each well. Each day, the cells in four wells were fixed in 100% cold methanol, followed by staining for 5 min at RT with 0.2 ng/mL 4′,6-diamidino-2-phenylindole (DAPI) in PBS. The cells were washed once in PBS, then read on a fluorescence plate reader using 365/439 excitation/emission wavelengths. LAPC4 and LNCaP cells proliferated to a much greater degree in the presence of DHT, while LN-AR cells proliferated in the presence and absence of DHT.

[2] = Pharmacokinetics in mice, drug levels by mass spectrometry; type: in vivo
From the text: Serum samples were obtained at fixed time intervals, and the drug levels determined by mass spectrometry.

[3] = target: T1, endogenous AR (Homo sapiens, UniProt P10275, T878A); type: cell-based; settings: LNCaP, 3 nM DHT plus 1 μM BIC, 100 nM PP or 100 nM HH
T1 construct: that each express endogenous AR; endogenous in cells; host or cells: LNCaP
T1 sequence (P10275 whole entry T878A): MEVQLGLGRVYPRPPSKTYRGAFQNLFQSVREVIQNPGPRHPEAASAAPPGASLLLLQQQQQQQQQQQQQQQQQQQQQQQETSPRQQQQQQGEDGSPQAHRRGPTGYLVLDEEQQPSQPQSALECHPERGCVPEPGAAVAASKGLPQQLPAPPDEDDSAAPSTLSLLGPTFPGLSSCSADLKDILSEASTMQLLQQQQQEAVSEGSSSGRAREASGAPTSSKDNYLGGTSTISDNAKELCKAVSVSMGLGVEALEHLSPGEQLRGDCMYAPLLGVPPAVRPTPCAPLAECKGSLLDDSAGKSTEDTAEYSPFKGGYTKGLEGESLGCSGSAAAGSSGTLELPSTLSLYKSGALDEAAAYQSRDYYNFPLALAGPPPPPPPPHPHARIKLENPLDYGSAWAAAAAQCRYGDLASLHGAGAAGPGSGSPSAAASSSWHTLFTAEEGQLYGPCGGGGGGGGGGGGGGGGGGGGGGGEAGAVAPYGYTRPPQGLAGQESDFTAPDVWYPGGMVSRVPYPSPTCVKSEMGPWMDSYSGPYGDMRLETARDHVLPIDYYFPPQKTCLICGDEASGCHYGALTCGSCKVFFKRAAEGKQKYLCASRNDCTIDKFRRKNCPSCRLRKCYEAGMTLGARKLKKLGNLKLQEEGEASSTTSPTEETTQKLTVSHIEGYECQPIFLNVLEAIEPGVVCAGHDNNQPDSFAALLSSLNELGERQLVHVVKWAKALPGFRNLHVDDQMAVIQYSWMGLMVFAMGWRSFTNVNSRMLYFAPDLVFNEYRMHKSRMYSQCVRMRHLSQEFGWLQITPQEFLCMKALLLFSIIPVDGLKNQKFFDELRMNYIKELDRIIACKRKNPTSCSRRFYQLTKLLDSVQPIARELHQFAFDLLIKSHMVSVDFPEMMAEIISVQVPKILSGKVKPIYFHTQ
Procedure: LAPC4 and LNCaP cells were grown in the presence or absence of 3 nM DHT in charcoal-stripped media, with or without the inhibitors. RNA was harvested using an RNAeasy kit (Qiagen) and reverse transcribed (MMLV-RT, Invitrogen). Real-time PCR was carried out on a 7300 Real Time PCR System (Applied Biosystems) using SYBR green as the detecting dye and Rox as the reference dye. The androgen responsive genes kalikrein 3, or PSA (KLK3) [Cleutjens, K. B., et al., Two androgen response regions cooperate in steroid hormone regulated activity of the prostate-specific antigen promoter. J Biol Chem, 1996. 271(11): p. 6379-88; Nelson, P. S., et al., The program of androgen-responsive genes in neoplastic prostate epithelium. Proc Natl Acad Sci USA, 2002. 99(18): p. 11890-5), metalloproteinase 16 (MMP16) (Nelson, P. S., et al., The program of androgen-responsive genes in neoplastic prostate epithelium. Proc Natl Acad Sci USA, 2002. 99(18): p. 11890-5), transmembrane protease serine 2 (TMPRSS2) (Nelson, P. S., et al., The program of androgen-responsive genes in neoplastic prostate epithelium. Proc Natl Acad Sci USA, 2002. 99(18): p. 11890-5; […] Vaarala, M. H., et al., Expression of transmembrane serine protease TMPRSS2 in mouse and human tissues. J Pathol, 2001. 193(1): p. 134-40), FK506-binding immunophilin 51 (FKBP51) (Nelson, P. S., et al., The program of androgen-responsive genes in neoplastic prostate epithelium. Proc Natl Acad Sci USA, 2002. 99(18): p. 11890-5; Amler, L. C., et al., Dysregulated expression of androgen-responsive and nonresponsive genes in the androgen-independent prostate cancer xenograft model CWR22-R1. Cancer Res, 2000. 60(21): p. 6134-41; Velasco, A. M., et al., Identification and validation of novel androgen-regulated genes in prostate cancer. Endocrinology, 2004. 145(8): p. 3913-24; Magee, J. A., et al., Direct, androgen receptor-mediated regulation of the FKBP5 gene via a distal enhancer element. Endocrinology, 2006. 147(1): p. 590-8), G-protein coupled receptor RDC1 homolog, or chemokine orphan receptor 1 (RDC-1) (Nelson, P. S., et al., The program of androgen-responsive genes in neoplastic prostate epithelium. Proc Natl Acad Sci USA, 2002. 99(18): p. 11890-5), NK homeobox family member 3 (NRx3.1) (Nelson, P. S., et al., The program of androgen-responsive genes in neoplastic prostate epithelium. Proc Natl Acad Sci USA, 2002. 99(18): p. 11890-5; Bieberich, C. J., et al., Prostate-specific and androgen-dependent expression of a novel homeobox gene. J Biol Chem, 1996. 271(50): p. 31779-82; […]) were all normalized to the transcription of the housekeeping ribosomal gene (RPL19). All samples were done in triplicate and separately normalized.

Compound: Cc1nccc2c1[nH]c1cc(O)ccc12 [HH, harmol hydrochloride]
- Inhibition of cell growth [1]: not effective
- Plasma concentration ([2]; mice, single IP injection 5 mg/kg, 1 hr): 5.0 ng/mL
- Clearance / half-life (in words) ([2]; wild-type FVB mice, single intraperitoneal injection): rapidly cleared
- KLK3 transcription (normalized to RPL19) ([3]; No DHT = 1, 3 nM DHT = 1.89): 1.46
- Nkx3.1 transcription (normalized to RPL19) ([3]; No DHT = 1, 3 nM DHT = 2.00): 1.28
- FKBP51 transcription (normalized to RPL19) ([3]; No DHT = 1, 3 nM DHT = 2.15): 1.90
- TMPRSS2 transcription (normalized to RPL19) ([3]; No DHT = 1, 3 nM DHT = 3.70): 1.22
- MMP16 transcription (normalized to RPL19) ([3]; androgen-repressed gene, No DHT = 1, 3 nM DHT = 0.61): 1.02
- RDC1 transcription (normalized to RPL19) ([3]; androgen-repressed gene, No DHT = 1, 3 nM DHT = 0.66): 1.22
